Source: the NIST ThermoML archive (doi:10.1021/je034203p)
± gives the expanded uncertainty stated by the source.

Assay: xn = mol fraction of the nth substance listed
Settings: 298.15 K, 101.3 kPa, Liquid; for viscosity: Capillary tube (Ostwald / Ubbelohde) method

CC(C)=O [acetone] + ClC(Cl)=C(Cl)Cl
x2 = 0
Settings | mass density [kg/m3] | viscosity [mPa·s]
– | 780.8 ± 0.7 | 0.3121 ± 0.0066

CC(C)=O [acetone] + ClC=C(Cl)Cl
x2 = 0
Settings | mass density [kg/m3] | viscosity [mPa·s]
– | 780.8 ± 0.7 | 0.3121 ± 0.0066

c1ccccc1 [benzene] + ClC(Cl)=C(Cl)Cl
x2 = 0
Settings | mass density [kg/m3] | viscosity [mPa·s]
– | 869.7 ± 0.6 | 0.608 ± 0.0078

c1ccccc1 [benzene] + ClC=C(Cl)Cl
x2 = 0
Settings | mass density [kg/m3] | viscosity [mPa·s]
– | 869.7 ± 0.6 | 0.608 ± 0.0078

CCCCO [butan-1-ol] + ClC(Cl)=C(Cl)Cl
x2 = 0
Settings | mass density [kg/m3] | viscosity [mPa·s]
– | 806.3 ± 0.7 | 2.538 ± 0.023

CCCCO [butan-1-ol] + ClC=C(Cl)Cl
x2 = 0
Settings | mass density [kg/m3] | viscosity [mPa·s]
– | 806.3 ± 0.7 | 2.538 ± 0.023

CCC(C)O (centres undefined) [butan-2-ol] + ClC(Cl)=C(Cl)Cl
x2 = 0
Settings | mass density [kg/m3] | viscosity [mPa·s]
– | 804.8 ± 0.7 | 3.103 ± 0.028

CCC(C)O (centres undefined) [butan-2-ol] + ClC=C(Cl)Cl
x2 = 0
Settings | mass density [kg/m3] | viscosity [mPa·s]
– | 804.8 ± 0.7 | 3.103 ± 0.028

CCC(C)=O [butanone] + ClC(Cl)=C(Cl)Cl
x2 = 0
Settings | mass density [kg/m3] | viscosity [mPa·s]
– | 797.4 ± 0.7 | 0.4011 ± 0.0069

CCC(C)=O [butanone] + ClC=C(Cl)Cl
x2 = 0
Settings | mass density [kg/m3] | viscosity [mPa·s]
– | 797.4 ± 0.7 | 0.4011 ± 0.0069

CCO [ethanol] + ClC(Cl)=C(Cl)Cl
x2 = 0
Settings | mass density [kg/m3] | viscosity [mPa·s]
– | 787.4 ± 0.7 | 1.112 ± 0.011

CCO [ethanol] + ClC=C(Cl)Cl
x2 = 0
Settings | mass density [kg/m3] | viscosity [mPa·s]
– | 787.4 ± 0.7 | 1.112 ± 0.011

CCOC(C)=O [ethyl acetate] + ClC(Cl)=C(Cl)Cl
x2 = 0
Settings | mass density [kg/m3] | viscosity [mPa·s]
– | 894 ± 0.6 | 0.4274 ± 0.007

CCOC(C)=O [ethyl acetate] + ClC=C(Cl)Cl
x2 = 0
Settings | mass density [kg/m3] | viscosity [mPa·s]
– | 894 ± 0.6 | 0.4274 ± 0.007

CO [methanol] + ClC(Cl)=C(Cl)Cl
x2 = 0
Settings | mass density [kg/m3] | viscosity [mPa·s]
– | 788.1 ± 0.7 | 0.5482 ± 0.0075

CO [methanol] + ClC=C(Cl)Cl
x2 = 0
Settings | mass density [kg/m3] | viscosity [mPa·s]
– | 788.1 ± 0.7 | 0.5482 ± 0.0075

COC(C)=O [methyl ethanoate] + ClC(Cl)=C(Cl)Cl
x2 = 0
Settings | mass density [kg/m3] | viscosity [mPa·s]
– | 923.9 ± 0.6 | 0.3711 ± 0.0068

COC(C)=O [methyl ethanoate] + ClC=C(Cl)Cl
x2 = 0
Settings | mass density [kg/m3] | viscosity [mPa·s]
– | 923.9 ± 0.6 | 0.3711 ± 0.0068

CCCO [propan-1-ol] + ClC(Cl)=C(Cl)Cl
x2 = 0
Settings | mass density [kg/m3] | viscosity [mPa·s]
– | 800 ± 0.7 | 1.954 ± 0.017

CCCO [propan-1-ol] + ClC=C(Cl)Cl
x2 = 0
Settings | mass density [kg/m3] | viscosity [mPa·s]
– | 800 ± 0.7 | 1.954 ± 0.017

CC(C)O [propan-2-ol] + ClC(Cl)=C(Cl)Cl
x2 = 0
Settings | mass density [kg/m3] | viscosity [mPa·s]
– | 784.3 ± 0.7 | 2.044 ± 0.018

CC(C)O [propan-2-ol] + ClC=C(Cl)Cl
x2 = 0
Settings | mass density [kg/m3] | viscosity [mPa·s]
– | 784.3 ± 0.7 | 2.044 ± 0.018

ClC(Cl)=C(Cl)Cl [tetrachloroethene] + CC(C)=O
Settings | mass density [kg/m3] | viscosity [mPa·s]
x1 = 0.0742 | 862.2 ± 0.6 | 0.3537 ± 0.0067
x1 = 0.1529 | 943.8 ± 0.6 | 0.398 ± 0.0069
x1 = 0.2362 | 1025.5 ± 0.6 | 0.4442 ± 0.0071
x1 = 0.3247 | 1107.7 ± 0.7 | 0.4942 ± 0.0073
x1 = 0.4192 | 1189.6 ± 0.9 | 0.5459 ± 0.0075
x1 = 0.5201 | 1272.3 ± 1 | 0.6021 ± 0.0078
x1 = 0.6279 | 1356.2 ± 1.2 | 0.6581 ± 0.0081
x1 = 0.7428 | 1440.3 ± 1.3 | 0.7167 ± 0.0084
x1 = 0.8671 | 1524.6 ± 1.4 | 0.7802 ± 0.0087
x1 = 1 | 1610.2 ± 1.6 | 0.8474 ± 0.0091

ClC(Cl)=C(Cl)Cl [tetrachloroethene] + CC(C)O
Settings | mass density [kg/m3] | viscosity [mPa·s]
x1 = 0.0763 | 864.9 ± 0.6 | 1.855 ± 0.017
x1 = 0.1567 | 946.4 ± 0.6 | 1.676 ± 0.015
x1 = 0.2417 | 1026.7 ± 0.6 | 1.51 ± 0.014
x1 = 0.3313 | 1107.5 ± 0.7 | 1.364 ± 0.013
x1 = 0.4266 | 1189.3 ± 0.9 | 1.236 ± 0.012
x1 = 0.5276 | 1271.6 ± 1 | 1.123 ± 0.011
x1 = 0.6349 | 1355.4 ± 1.2 | 1.025 ± 0.01
x1 = 0.7486 | 1437.6 ± 1.3 | 0.9401 ± 0.0097
x1 = 0.8705 | 1523.6 ± 1.4 | 0.8824 ± 0.0093
x1 = 1 | 1610.2 ± 1.6 | 0.8474 ± 0.0091

ClC(Cl)=C(Cl)Cl [tetrachloroethene] + CCC(C)=O
Settings | mass density [kg/m3] | viscosity [mPa·s]
x1 = 0.0888 | 875.6 ± 0.6 | 0.4563 ± 0.0071
x1 = 0.1798 | 955.1 ± 0.6 | 0.5095 ± 0.0073
x1 = 0.2732 | 1034.4 ± 0.6 | 0.5626 ± 0.0076
x1 = 0.3692 | 1114.1 ± 0.8 | 0.6147 ± 0.0078
x1 = 0.4672 | 1193.9 ± 0.9 | 0.6642 ± 0.0081
x1 = 0.5688 | 1275.5 ± 1 | 0.7069 ± 0.0083
x1 = 0.6719 | 1356.5 ± 1.1 | 0.7447 ± 0.0085
x1 = 0.7786 | 1441.7 ± 1.3 | 0.7802 ± 0.0087
x1 = 0.8873 | 1524.2 ± 1.4 | 0.8161 ± 0.0089
x1 = 1 | 1610.2 ± 1.6 | 0.8474 ± 0.0091

ClC(Cl)=C(Cl)Cl [tetrachloroethene] + CCC(C)O
Settings | mass density [kg/m3] | viscosity [mPa·s]
x1 = 0.0903 | 883.6 ± 0.6 | 2.66 ± 0.024
x1 = 0.1825 | 962.6 ± 0.6 | 2.28 ± 0.02
x1 = 0.2769 | 1042.5 ± 0.6 | 1.944 ± 0.017
x1 = 0.3734 | 1121.1 ± 0.8 | 1.667 ± 0.015
x1 = 0.4718 | 1201.2 ± 0.9 | 1.453 ± 0.013
x1 = 0.5733 | 1281.9 ± 1 | 1.262 ± 0.012
x1 = 0.6759 | 1362.6 ± 1.2 | 1.119 ± 0.011
x1 = 0.7817 | 1444.3 ± 1.3 | 1.005 ± 0.01
x1 = 0.8891 | 1525.8 ± 1.5 | 0.9029 ± 0.0094
x1 = 1 | 1610.2 ± 1.6 | 0.8474 ± 0.0091

ClC(Cl)=C(Cl)Cl [tetrachloroethene] + CCCCO
Settings | mass density [kg/m3] | viscosity [mPa·s]
x1 = 0.0901 | 885.2 ± 0.6 | 2.255 ± 0.02
x1 = 0.1823 | 964.3 ± 0.6 | 1.986 ± 0.018
x1 = 0.2766 | 1043.5 ± 0.6 | 1.717 ± 0.015
x1 = 0.3727 | 1122.5 ± 0.8 | 1.496 ± 0.014
x1 = 0.4713 | 1201.7 ± 0.9 | 1.314 ± 0.012
x1 = 0.5727 | 1283 ± 1 | 1.158 ± 0.011
x1 = 0.6759 | 1364.2 ± 1.2 | 1.045 ± 0.01
x1 = 0.7809 | 1444.6 ± 1.3 | 0.9519 ± 0.0098
x1 = 0.8891 | 1526 ± 1.5 | 0.8894 ± 0.0094
x1 = 1 | 1610.2 ± 1.6 | 0.8474 ± 0.0091

ClC(Cl)=C(Cl)Cl [tetrachloroethene] + CCCO
Settings | mass density [kg/m3] | viscosity [mPa·s]
x1 = 0.0749 | 879 ± 0.6 | 1.79 ± 0.016
x1 = 0.1541 | 958.4 ± 0.6 | 1.632 ± 0.015
x1 = 0.2379 | 1038.5 ± 0.6 | 1.488 ± 0.014
x1 = 0.3269 | 1117.4 ± 0.8 | 1.35 ± 0.013
x1 = 0.4214 | 1197.5 ± 0.9 | 1.218 ± 0.012
x1 = 0.5229 | 1278.9 ± 1 | 1.11 ± 0.011
x1 = 0.6302 | 1360.9 ± 1.2 | 1.011 ± 0.01
x1 = 0.745 | 1442.8 ± 1.3 | 0.9253 ± 0.0096
x1 = 0.8679 | 1525.7 ± 1.5 | 0.8657 ± 0.0092
x1 = 1 | 1610.2 ± 1.6 | 0.8474 ± 0.0091

ClC(Cl)=C(Cl)Cl [tetrachloroethene] + CCO
Settings | mass density [kg/m3] | viscosity [mPa·s]
x1 = 0.0593 | 868.1 ± 0.6 | 1.073 ± 0.01
x1 = 0.1243 | 949.6 ± 0.6 | 1.04 ± 0.01
x1 = 0.1957 | 1029.4 ± 0.6 | 1.007 ± 0.01
x1 = 0.2746 | 1111.3 ± 0.7 | 0.9767 ± 0.0099
x1 = 0.3619 | 1191.8 ± 0.9 | 0.9475 ± 0.0097
x1 = 0.4601 | 1273.7 ± 1 | 0.9189 ± 0.0095
x1 = 0.57 | 1356 ± 1.2 | 0.8939 ± 0.0094
x1 = 0.6944 | 1440 ± 1.3 | 0.8729 ± 0.0093
x1 = 0.8364 | 1524.9 ± 1.4 | 0.8551 ± 0.0092
x1 = 1 | 1610.2 ± 1.6 | 0.8474 ± 0.0091
